Data published in ChEMBL document CHEMBL1133242, “Selective alpha1a adrenergic receptor antagonists based on 4-aryl-3,4-dihydropyridine-2-ones” (Bioorg Med Chem Lett, 2000).
pKi: −log10 of the molar value.

Columns and labels:
[1] = biological target: T1, Alpha-1B adrenergic receptor (Homo sapiens, UniProt P35368); assay: In vitro antagonism at Alpha-1B adrenergic receptor; assay type: functional
T1 sequence (P35368 whole entry): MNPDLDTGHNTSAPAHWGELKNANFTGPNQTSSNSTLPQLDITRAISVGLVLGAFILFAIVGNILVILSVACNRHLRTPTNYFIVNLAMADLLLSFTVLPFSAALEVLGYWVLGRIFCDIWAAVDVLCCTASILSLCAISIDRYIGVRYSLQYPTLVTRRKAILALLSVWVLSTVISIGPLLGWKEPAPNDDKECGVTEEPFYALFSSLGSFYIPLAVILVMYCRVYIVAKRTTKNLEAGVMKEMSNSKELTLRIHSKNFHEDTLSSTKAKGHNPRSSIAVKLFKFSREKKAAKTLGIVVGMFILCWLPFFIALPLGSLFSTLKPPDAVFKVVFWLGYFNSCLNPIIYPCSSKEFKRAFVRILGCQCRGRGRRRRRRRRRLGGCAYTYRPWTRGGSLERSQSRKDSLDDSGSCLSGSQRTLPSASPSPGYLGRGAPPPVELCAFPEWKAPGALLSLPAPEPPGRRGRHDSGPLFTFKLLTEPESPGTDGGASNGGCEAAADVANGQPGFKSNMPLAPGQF

[2] = biological target: T2, Alpha-1D adrenergic receptor (Homo sapiens, UniProt P25100); assay: In vitro antagonism at Alpha-1D adrenergic receptor; assay type: functional
T2 sequence (P25100 whole entry): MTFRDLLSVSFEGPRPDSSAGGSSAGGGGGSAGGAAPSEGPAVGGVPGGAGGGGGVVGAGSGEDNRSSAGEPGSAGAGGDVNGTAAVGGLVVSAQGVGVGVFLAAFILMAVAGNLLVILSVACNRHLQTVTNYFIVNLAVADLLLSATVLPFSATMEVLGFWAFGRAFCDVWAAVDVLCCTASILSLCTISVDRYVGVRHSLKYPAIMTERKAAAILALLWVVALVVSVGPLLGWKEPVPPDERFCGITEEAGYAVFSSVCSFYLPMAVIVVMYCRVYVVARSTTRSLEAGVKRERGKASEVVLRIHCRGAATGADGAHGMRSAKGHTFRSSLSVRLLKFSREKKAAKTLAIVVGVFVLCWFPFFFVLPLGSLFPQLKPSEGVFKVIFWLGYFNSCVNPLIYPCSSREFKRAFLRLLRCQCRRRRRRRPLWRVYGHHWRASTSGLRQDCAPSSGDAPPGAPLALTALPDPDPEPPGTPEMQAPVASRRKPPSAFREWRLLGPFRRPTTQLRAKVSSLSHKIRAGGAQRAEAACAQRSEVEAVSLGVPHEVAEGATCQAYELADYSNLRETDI

[3] = biological target: T3, Alpha-1A adrenergic receptor (Homo sapiens, UniProt P35348); assay: In vitro antagonism at Alpha-1A adrenergic receptor; assay type: functional
T3 sequence (P35348 whole entry): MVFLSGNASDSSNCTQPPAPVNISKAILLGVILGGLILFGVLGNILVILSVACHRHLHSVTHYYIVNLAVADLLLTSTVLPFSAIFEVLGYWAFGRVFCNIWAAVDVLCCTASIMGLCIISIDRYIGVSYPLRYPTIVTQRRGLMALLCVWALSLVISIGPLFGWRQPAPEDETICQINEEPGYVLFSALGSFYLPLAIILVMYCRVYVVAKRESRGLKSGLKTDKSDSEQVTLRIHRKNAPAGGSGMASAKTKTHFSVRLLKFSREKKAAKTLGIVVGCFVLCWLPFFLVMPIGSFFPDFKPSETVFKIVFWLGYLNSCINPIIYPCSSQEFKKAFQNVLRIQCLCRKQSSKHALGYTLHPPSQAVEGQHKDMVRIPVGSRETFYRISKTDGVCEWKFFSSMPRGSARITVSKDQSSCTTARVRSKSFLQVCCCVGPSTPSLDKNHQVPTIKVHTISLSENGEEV

Histamine H1 receptor = Histamine H1 receptor (Homo sapiens, UniProt P35367); assay: Selectivity screen against human Histamine H1 receptor
Chain of Histamine H1 receptor (P35367 whole entry): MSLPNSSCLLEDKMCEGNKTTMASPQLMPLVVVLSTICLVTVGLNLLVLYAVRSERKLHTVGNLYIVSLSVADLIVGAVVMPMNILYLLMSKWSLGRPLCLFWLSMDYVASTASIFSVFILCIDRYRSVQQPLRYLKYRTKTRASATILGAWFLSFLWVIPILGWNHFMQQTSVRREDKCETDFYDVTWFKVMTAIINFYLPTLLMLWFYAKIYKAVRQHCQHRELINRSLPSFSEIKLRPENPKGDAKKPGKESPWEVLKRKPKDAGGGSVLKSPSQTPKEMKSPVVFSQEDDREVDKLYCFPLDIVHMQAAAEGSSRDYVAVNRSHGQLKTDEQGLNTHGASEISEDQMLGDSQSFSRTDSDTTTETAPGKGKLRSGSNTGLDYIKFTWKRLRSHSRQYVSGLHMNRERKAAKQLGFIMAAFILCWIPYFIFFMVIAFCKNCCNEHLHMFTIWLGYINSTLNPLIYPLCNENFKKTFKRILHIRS

[4] = t1/2 value in rat; assay type: ADME, organism-based; conditions: in vivo
[5] = biological target: T4, Alpha-2A adrenergic receptor (Homo sapiens, UniProt P08913); assay: […] inhibitory effect against Alpha-2A adrenergic receptor
T4 sequence (P08913 whole entry): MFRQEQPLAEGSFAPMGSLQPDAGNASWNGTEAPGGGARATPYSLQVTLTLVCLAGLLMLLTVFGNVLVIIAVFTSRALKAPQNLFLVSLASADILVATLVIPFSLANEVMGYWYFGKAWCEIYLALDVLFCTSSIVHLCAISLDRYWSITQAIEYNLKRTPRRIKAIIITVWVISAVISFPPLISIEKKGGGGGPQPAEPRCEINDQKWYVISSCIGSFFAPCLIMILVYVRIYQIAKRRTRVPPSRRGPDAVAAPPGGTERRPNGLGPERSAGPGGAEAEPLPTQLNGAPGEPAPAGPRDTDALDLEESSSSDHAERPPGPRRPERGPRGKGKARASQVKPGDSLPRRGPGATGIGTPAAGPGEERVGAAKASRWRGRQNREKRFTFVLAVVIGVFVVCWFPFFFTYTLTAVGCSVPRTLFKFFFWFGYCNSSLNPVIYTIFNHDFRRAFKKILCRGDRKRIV

[6] = biological target: T5, Alpha-2C adrenergic receptor (Homo sapiens, UniProt P18825); assay: […] inhibitory effect against Alpha-2C adrenergic receptor
T5 sequence (P18825 whole entry): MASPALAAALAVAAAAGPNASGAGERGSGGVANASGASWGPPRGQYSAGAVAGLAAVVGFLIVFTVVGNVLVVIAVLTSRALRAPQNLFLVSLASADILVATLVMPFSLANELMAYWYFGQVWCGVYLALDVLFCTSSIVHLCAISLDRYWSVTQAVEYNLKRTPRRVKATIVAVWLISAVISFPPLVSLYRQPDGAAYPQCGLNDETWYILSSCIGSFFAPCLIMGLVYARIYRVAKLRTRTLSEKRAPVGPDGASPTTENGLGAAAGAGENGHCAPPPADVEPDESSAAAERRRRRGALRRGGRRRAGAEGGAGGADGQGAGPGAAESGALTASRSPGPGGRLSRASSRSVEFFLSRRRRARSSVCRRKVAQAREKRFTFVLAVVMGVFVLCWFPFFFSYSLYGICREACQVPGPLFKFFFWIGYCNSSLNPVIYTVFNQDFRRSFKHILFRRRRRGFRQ

[7] = biological target: T6, Alpha-2B adrenergic receptor (Homo sapiens, UniProt P18089); assay: […] inhibitory effect against alpha-2b Adrenergic receptor
T6 sequence (P18089 whole entry): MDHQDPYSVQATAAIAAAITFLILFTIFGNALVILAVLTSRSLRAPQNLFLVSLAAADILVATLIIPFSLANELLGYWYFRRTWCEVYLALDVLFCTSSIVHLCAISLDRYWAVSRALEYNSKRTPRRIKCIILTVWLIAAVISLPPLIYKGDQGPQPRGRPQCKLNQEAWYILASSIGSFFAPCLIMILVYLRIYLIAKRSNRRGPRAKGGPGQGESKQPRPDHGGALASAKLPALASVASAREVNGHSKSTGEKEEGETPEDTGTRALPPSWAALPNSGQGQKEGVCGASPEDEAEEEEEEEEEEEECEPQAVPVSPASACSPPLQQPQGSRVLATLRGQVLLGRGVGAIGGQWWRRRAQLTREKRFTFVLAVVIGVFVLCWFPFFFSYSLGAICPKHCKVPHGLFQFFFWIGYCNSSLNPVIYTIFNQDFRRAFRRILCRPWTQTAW

Rattus norvegicus [8] = organism: Rattus norvegicus; assay: Dose required to inhibit the prostate contractile response by 50% after challenge with selective alpha-1a agonist A61603 and duration of action was 4 hr in an in situ rat prostate model; assay type: functional, Prostate gland
Rattus norvegicus [9] = organism: Rattus norvegicus; assay: Dose required to inhibit the prostate contractile response by 50% after challenge with selective alpha-1a agonist A61603 in an in situ rat prostate model; assay type: functional, Prostate gland
Rattus norvegicus [10] = organism: Rattus norvegicus; assay: Dose required to inhibit the prostate contractile response by 50% after challenge with selective alpha-1a agonist A61603 and duration of action was 1.5h in an in situ rat prostate model; assay type: functional, Prostate gland
Rattus norvegicus [11] = organism: Rattus norvegicus; assay: Dose required to inhibit the prostate contractile response by 50% after challenge with selective alpha-1a agonist A61603 and duration of action was 1 hr in an in situ rat prostate model; assay type: functional, Prostate gland
[12] = Percent bioavailability in dog; assay type: ADME, organism-based, Canis lupus familiaris; conditions: in vivo, read-out: Bioavailabiility
Rattus norvegicus [13] = organism: Rattus norvegicus; assay: Dose required to inhibit the prostate contractile response by 50% after challenge with selective alpha-1a agonist A61603 and duration of action was 2.5h in an in situ rat prostate model; assay type: functional, Prostate gland
Rattus norvegicus [14] = organism: Rattus norvegicus; assay: Dose required to inhibit the prostate contractile response by 50% after challenge with selective alpha-1a agonist A61603 and duration of action was 3.5h in an in situ rat prostate model; assay type: functional, Prostate gland

| Structure (SMILES) | pKi [1] | pKi [2] | pKi [3] | pKi (Histamine H1 receptor) | half-life [4] [h] | pKi [5] | pKi [6] | pKi [7] | AD50 (Rattus norvegicus [8]) [mg/kg] | AD50 (Rattus norvegicus [9]) [mg/kg] | AD50 (Rattus norvegicus [10]) [mg/kg] | AD50 (Rattus norvegicus [11]) [mg/kg] | bioavailability [12] [%] | AD50 (Rattus norvegicus [13]) [mg/kg] | AD50 (Rattus norvegicus [14]) [mg/kg] |
| --- | --- | --- | --- | --- | --- | --- | --- | --- | --- | --- | --- | --- | --- | --- | --- |
| CC1=C(C(=O)NCCCN2CCC(c3ccc(F)cc3)CC2)[C@@H](c2ccc(F)c(F)c2)CC(=O)N1C | 7.27 | 6.60 | 9.15 |  |  |  |  |  |  |  |  |  |  |  |  |
| CC1=C(C(=O)NCCCN2CCC(C#N)(c3ccc(F)cc3)CC2)[C@@H](c2ccc(F)c(F)c2)CC(=O)N1 | 5.98 | 5.98 | 8.74 | 7.20 |  |  |  |  |  |  |  |  |  |  |  |
| CC1=C(C(=O)NCCCN2CCC(c3ccc(F)cc3C#N)CC2)[C@@H](c2ccc(F)c(F)c2)CC(=O)N1C | 6.44 | 6.23 | 9.10 | 6.40 | 1.4 | 5.34 | 5.41 | 6.54 | 0.009 |  |  |  |  |  |  |
| CC1=C(C(=O)NCCCN2CCC(C#N)(c3ccc(F)cc3)CC2)[C@@H](c2ccc(F)c(F)c2)CC(=O)N1C | 6.37 | 6.06 | 8.72 | 6.45 |  | 5.73 | 5.96 | 6.11 |  | 0.025 |  |  |  |  |  |
| CC1=C(C(=O)NCCCN2CCC(C#N)(c3ccc(F)cc3F)CC2)[C@@H](c2ccc(F)c(F)c2)CC(=O)N1 | 6.09 | 6.23 | 9.00 | 6.97 |  | 5.71 | 5.70 | 6.27 |  |  | 0.017 |  |  |  |  |
| CC1=C(C(=O)NCCCN2CCC(C#N)(c3ccc(F)cc3F)CC2)[C@@H](c2ccc(F)c(F)c2)CC(=O)N1C | 6.07 | 5.94 | 8.96 | 6.52 |  | 5.47 | 5.72 | 6.02 |  |  |  | 0.029 |  |  |  |
| CC1=C(C(=O)NCCCN2CCC(c3ccccc3C#N)CC2)[C@@H](c2ccc(F)c(F)c2)CC(=O)N1C | 5.92 | 6.17 | 8.52 |  |  |  |  |  |  |  |  |  |  |  |  |
| CC1=C(C(=O)NCCCN2CCC(C#N)(c3ccccn3)CC2)[C@@H](c2ccc(F)c(F)c2)CC(=O)N1C | < 5.70 | < 5.30 |  |  |  |  |  |  |  |  |  |  |  |  |  |
| CC1=C(C(=O)NCC(C)CN2CCC(C#N)(c3ccccn3)CC2)[C@@H](c2ccc(F)c(F)c2)CC(=O)N1 (stereo not given in full) | < 5.70 | < 5.30 | 7.38 |  |  |  |  |  |  |  |  |  |  |  |  |
| CC1=C(C(=O)NCCCN2CCC(C#N)(c3ccc(F)cc3C#N)CC2)[C@@H](c2ccc(F)c(F)c2)CC(=O)N1 | < 5.70 | < 5.30 | 8.85 | 7.04 |  | 5.11 | 5.33 | 6.17 |  |  |  |  |  |  |  |
| CC1=C(C(=O)NCCCN2CCC(c3ccccc3C#N)CC2)[C@@H](c2ccc(F)c(F)c2)CC(=O)N1 | 6.48 | 6.48 | 9.00 |  |  |  |  |  |  |  |  |  |  |  |  |
| CC1=C(C(=O)NCCCN2CCC(c3ccc(F)cc3C#N)CC2)[C@@H](c2ccc(F)c(F)c2)CC(=O)N1 | 7.00 | 6.82 | 9.70 | 7.24 | 4.8 | 5.89 | 5.83 | 6.84 |  |  |  |  | 34 | 0.005 |  |
| CC1=C(C(=O)NCCCN2CCC(C#N)(c3ccc(F)cc3C#N)CC2)[C@@H](c2ccc(F)c(F)c2)CC(=O)N1C | < 5.70 | < 5.30 | 8.15 | 6.21 |  | 4.86 | 5.19 | 5.75 |  |  |  |  |  |  |  |
| CC1=C(C(=O)NCCCN2CCC(C#N)(c3ccccc3C#N)CC2)[C@@H](c2ccc(F)c(F)c2)CC(=O)N1C | < 5.70 | < 5.30 | 7.89 |  |  |  |  |  |  |  |  |  |  |  |  |
| CC1=C(C(=O)NCCCN2CCC(c3ccc(F)cc3)CC2)[C@@H](c2ccc(F)c(F)c2)CC(=O)N1 | 7.43 | 6.70 | 9.40 | 7.72 |  | 6.64 | 6.50 | 6.79 |  | 0.032 |  |  |  |  |  |
| CC1=C(C(=O)NCCCN2CCC(C#N)(c3ccccc3C#N)CC2)[C@@H](c2ccc(F)c(F)c2)CC(=O)N1 | < 5.70 | < 5.30 | 8.49 |  |  |  |  |  |  |  |  |  |  |  |  |
| CCOc1ccccc1OCCN[C@H](C)Cc1ccc(OC)c(S(N)(=O)=O)c1 [TAMSULOSIN] |  |  |  |  |  |  |  |  |  |  |  |  |  |  | 0.003 |
